Reference: patent US11987583B2, “Fused triazolo-pyrimidine compounds having useful pharmaceutical application” (PIKSci Inc., priority 2017, dated 2024)
Where two headings read alike, the source gives them in different places.

Key:
T-cell lymphoma Hut-78 = assay: Cell viability (Presto Blue), T-cell lymphoma Hut-78; type: cell-based; conditions: Homo sapiens, HuT78, Hut-78 cells, 70 hours exposure
Experimental: (§1) Three cancer cell lines, multiple myeloma KMS12E, Non-hodgkin's lymphoma SU-DHL4, T-cell lymphoma Hut-78, and normal human peripheral blood mononuclear cells derived from healthy individual were tested. The cells were plated in 384 well plates in RPMI medium supplemented with 10% fetal bovine serum. Cancer cells were plated at 1000 cells/well and normal cells at 10,000 cells per well in a total volume of 30 uL/well. Immediately after plating, the test compounds were added at […] concentrations: 10 uM-1 uM-0.01 uM-0.001 uM, in duplicate wells for each concentration. The cells were exposed to compounds for 70 hours at 37° C. in humidified incubator with 5% CO2. Cell viability was determined by Presto Blue reagent (Thermo Scientific/Invitrogen).

[1] = tested on: multiple myeloma KMS12E, Non-hodgkin's lymphoma SU-DHL4, T-cell lymphoma Hut-78; assay: Cell viability (Presto Blue), panel of cancer cell lines; type: cell-based; conditions: Homo sapiens; range over KMS12E, SU-DHL4, Hut-78; 70 hours; read-out: IC50, viability of the three cancer cell lines
Experimental: Three cancer cell lines, multiple myeloma KMS12E, Non-hodgkin's lymphoma SU-DHL4, T-cell lymphoma Hut-78, and normal human peripheral blood mononuclear cells derived from healthy individual were tested. The cells were plated in 384 well plates in RPMI medium supplemented with 10% fetal bovine serum. Cancer cells were plated at 1000 cells/well and normal cells at 10,000 cells per well in a total volume of 30 uL/well. Immediately after plating, the test compounds were added at five concentrations: 10 uM-1 uM-0.01 uM-0.001 uM, in duplicate wells for each concentration. The cells were exposed to compounds for 70 hours at 37° C. in humidified incubator with 5% CO2. Cell viability was determined by Presto Blue reagent (Thermo Scientific/Invitrogen).

[2] = tested on: normal human peripheral blood mononuclear cells; assay: Cell viability (Presto Blue), normal human PBMCs; type: cell-based; conditions: for IC50: Homo sapiens, PBMC
Experimental: as §1

[3] = tested on: IL-23 secretion by LPS-induced PBMCs; assay: IL-23 secretion by LPS-stimulated human PBMCs (ELISA); type: cell-based; conditions: 2 h pre-incubation, 100 ng/mL LPS 18 hours
Experimental: Human PBMCs were plated in 96 well plate at a density of 150,000 cells per a well in RPMI medium supplemented with 10% FBS. The cells were pre-incubated with compounds for 2 h. Following pre-incubation, the cells were stimulated with 100 ng/mL LPS for 18 hours. The secreted IL-23 was determined by ELISA (Human IL-23 Quantikine ELISA Kit, R&D cat #D2300B).

multiple myeloma KMS12E = assay: Cell viability (Presto Blue), multiple myeloma KMS12E; type: cell-based; conditions: Homo sapiens, KMS12E cells, 70 hours exposure, read-out: Plasma cell myeloma, IC50
Experimental: as §1

[4] = tested on: Acute myelomonocytic leukemia cells ML-2; assay: Caspase3/7 activity (Caspase-Glo 3/7) in ML-2 cells; type: cell-based; conditions: 15 h, 24 h and 41 h after exposure
Experimental: Acute myelomonocytic leukemia cells ML-2 were plated in 96 well plate at a density of 50,000 cells per a well in RPMI medium supplemented with 10% FBS. The cells were exposed to compounds and the early apoptosis marker, Caspase3/7 activity, was measured in the cells at 15 h, 24 h and 41 h after exposure to compounds. The caspase activity was determined using Caspase-Glo® 3/7 Assay (Promega) and according to the protocol provided by the manufacturer.

[5] = biological target: T1, Full length human recombinant PIKFYVE (Homo sapiens, UniProt Q9Y2I7); assay: Biochemical PIKfyve assay; conditions: 2 nM enzyme, 10 μM ATP, 3 h room temperature
T1 construct: Full length human recombinant PIKFYVE expressed in baculovirus expression system as N-terminal GST-fusion protein; GST (N); purchased Carna Biosciences (Kobe, Japan); host or cells: baculovirus expression system
T1 sequence (Q9Y2I7 whole entry, the tested form may be a part): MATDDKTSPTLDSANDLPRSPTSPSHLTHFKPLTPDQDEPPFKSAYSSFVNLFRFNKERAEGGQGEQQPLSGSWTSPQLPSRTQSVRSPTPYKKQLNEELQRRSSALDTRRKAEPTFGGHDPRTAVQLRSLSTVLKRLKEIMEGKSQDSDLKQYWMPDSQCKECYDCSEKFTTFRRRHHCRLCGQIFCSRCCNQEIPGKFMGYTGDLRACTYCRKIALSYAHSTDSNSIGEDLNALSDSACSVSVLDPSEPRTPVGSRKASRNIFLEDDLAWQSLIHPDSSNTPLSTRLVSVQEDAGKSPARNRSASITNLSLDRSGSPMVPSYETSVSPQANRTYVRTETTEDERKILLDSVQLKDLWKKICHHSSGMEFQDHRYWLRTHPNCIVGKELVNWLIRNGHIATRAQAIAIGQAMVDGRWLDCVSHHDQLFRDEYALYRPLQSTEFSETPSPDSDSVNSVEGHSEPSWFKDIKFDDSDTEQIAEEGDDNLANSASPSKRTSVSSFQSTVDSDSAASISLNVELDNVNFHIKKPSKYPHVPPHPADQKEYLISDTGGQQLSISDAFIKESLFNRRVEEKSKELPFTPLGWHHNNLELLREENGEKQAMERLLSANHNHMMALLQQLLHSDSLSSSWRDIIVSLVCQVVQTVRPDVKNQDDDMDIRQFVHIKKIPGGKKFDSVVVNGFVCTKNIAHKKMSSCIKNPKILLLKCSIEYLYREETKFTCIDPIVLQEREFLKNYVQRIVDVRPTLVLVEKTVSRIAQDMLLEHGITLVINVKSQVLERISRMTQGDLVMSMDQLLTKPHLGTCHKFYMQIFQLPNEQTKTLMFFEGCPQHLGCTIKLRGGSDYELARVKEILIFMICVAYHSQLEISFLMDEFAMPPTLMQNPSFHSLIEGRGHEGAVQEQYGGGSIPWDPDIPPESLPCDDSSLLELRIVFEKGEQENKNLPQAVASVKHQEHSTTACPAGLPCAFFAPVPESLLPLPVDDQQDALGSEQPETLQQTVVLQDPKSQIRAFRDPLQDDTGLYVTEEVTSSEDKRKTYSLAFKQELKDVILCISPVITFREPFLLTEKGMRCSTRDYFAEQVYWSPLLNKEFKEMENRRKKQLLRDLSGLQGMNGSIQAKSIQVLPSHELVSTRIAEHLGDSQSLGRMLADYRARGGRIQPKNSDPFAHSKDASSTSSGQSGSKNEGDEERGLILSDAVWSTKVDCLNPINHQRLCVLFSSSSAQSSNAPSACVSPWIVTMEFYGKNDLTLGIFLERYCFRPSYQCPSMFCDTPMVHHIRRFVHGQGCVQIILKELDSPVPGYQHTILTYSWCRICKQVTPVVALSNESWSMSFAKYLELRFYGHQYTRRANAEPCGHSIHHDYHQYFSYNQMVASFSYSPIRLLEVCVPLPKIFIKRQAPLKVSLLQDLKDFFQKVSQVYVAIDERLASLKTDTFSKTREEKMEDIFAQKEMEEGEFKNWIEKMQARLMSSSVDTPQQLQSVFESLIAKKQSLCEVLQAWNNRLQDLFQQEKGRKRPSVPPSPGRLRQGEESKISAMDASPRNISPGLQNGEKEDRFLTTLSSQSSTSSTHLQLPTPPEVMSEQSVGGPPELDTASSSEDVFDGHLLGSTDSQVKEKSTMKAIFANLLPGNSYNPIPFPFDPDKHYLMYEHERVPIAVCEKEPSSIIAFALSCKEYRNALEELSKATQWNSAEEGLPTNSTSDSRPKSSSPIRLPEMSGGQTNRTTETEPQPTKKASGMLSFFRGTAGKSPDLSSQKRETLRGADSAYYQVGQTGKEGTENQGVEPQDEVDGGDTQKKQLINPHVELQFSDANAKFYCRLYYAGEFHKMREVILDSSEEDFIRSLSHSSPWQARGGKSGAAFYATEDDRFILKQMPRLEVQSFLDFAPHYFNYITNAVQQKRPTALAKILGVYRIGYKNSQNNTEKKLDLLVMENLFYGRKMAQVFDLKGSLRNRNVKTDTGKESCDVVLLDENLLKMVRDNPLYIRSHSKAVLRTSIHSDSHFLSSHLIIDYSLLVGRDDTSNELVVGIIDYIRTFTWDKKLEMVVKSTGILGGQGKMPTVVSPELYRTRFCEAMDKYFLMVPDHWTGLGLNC
Experimental: Full length human recombinant PIKFYVE expressed in baculovirus expression system as N-terminal GST-fusion protein (265 kDa) was obtained from Carna Biosciences (Kobe, Japan). […] The kinase reactions were allowed to proceed for 3 h at room temperature. […] Terminated plates were analyzed on a microfluidic electrophoresis instrument (Caliper LabChip® 3000, Caliper Life Sciences/Perkin Elmer).

[6] = viability, Presto Blue, 70 hours exposure, read-out: Normal human PBMCs, IC50

For `Cc1cccc(/C=N/Nc2cc(N3CCOCC3)n3nc(-c4ccncc4)cc3n2)c1` [APY0201], the IC50 (T-cell lymphoma Hut-78) was 28 nM, the IC50 [1] was 33 to 46 nM and the IC50 ([2]; 70 hours, Example 14 text, read-out: IC50, viability of normal PBMCs) was > 10000 nM. For the same compound, the IC50 [2, 6] was > 10000 nM, the “secretion of IL-23” value [3] was “completely blocked secretion of IL-23” and the IC50 (multiple myeloma KMS12E) was 74 nM. The “Caspase3/7 activation (early apoptosis marker)” value (“Caspase3/7 activation” below) [4] was “induce apoptosis”.
`Cc1cccc(/C=N/Nc2cc(N3CCOCC3)nc(OCCc3ccccn3)n2)c1` [Apilimod, apilimod] was tested, and the IC50 (T-cell lymphoma Hut-78) was 27 nM, the IC50 [2, 6] was > 10000 nM and the IC50 (multiple myeloma KMS12E) was 73 nM. For the same compound, the “Caspase3/7 activation” value [4] was “induce apoptosis”.
In the case of `Cc1cccc(/C=N/Nc2cc(N3CCOCC3)n3nc(-c4ccncc4)nc3n2)c1` [Compound 1, (E)-4-(5-(2-(3-methylbenzylidene)hydrazinyl)-2-(pyridin-4-yl)-[1,2,4]-triazolo[1,5-a]pyrimidin-7-yl)morpholine], the IC50 (T-cell lymphoma Hut-78) is reported as 47 nM, the IC50 [5] is reported as 10 nM and the IC50 [2, 6] is reported as > 10000 nM. The “selectivity towards cancer cells over normal cells” value ([2]; Hut-78 and KMS12E vs normal human PBMCs) was “showed selectivity towards cancer cells over normal cells”, the “secretion of IL-23” value [3] was “completely blocked secretion of IL-23” and the IC50 (multiple myeloma KMS12E) was 115 nM. The “Caspase3/7 activation” value [4] was “triggered Caspase3/7 activation”.
